Here are results for 20 compounds from paper PMC10288926 (Journal of Enzyme Inhibition and Medicinal Chemistry, 2023).

Like-named read-outs stand apart in the source and are kept apart here.

One assay has as its target c-MET (Homo sapiens, UniProt P08581). The experiment in a line: HTRF kinase inhibitory assay, c-MET. The conditions noted are these: for inhibition at 1 µM: read-out: c-MET Inhibition (1μM); for c-MET Inhibition (1μM): kinase inhibition % at 1 μM. It counts as biochemical. On the technique in general: TR-FRET usually uses a lanthanide donor and a delayed reading to cut background.

Assay [1] has as its system NCI-H3122 cell line harbouring EML4-ALK fusion. The experiment in a line: Antiproliferative MTT assay, NCI-H3122. Format: cell-based, human. The conditions noted are these: read-out: Cellular IC50 (μM) NCI-H3122. (Formazan colour is commonly taken as a measure of viable cells.)
Another assay concerns the target ALK^WT (Homo sapiens, UniProt Q9UM73). The experiment in a line: HTRF KinEASE-TK kinase inhibitory assay, ALK wild type. The conditions noted are these: for inhibition at 1 µM: read-out: ALK Inhibition (1μM); for ALK Inhibition (1μM): kinase inhibition % at 1 μM. It counts as biochemical.
Assay [2] relates to HCC-78 cell line harbouring SLC34A2-ROS1 fusion. The experiment in a line: Antiproliferative MTT assay, HCC-78. It counts as cell-based, human. The conditions noted are these: read-out: Cellular IC50 (μM) HCC-78.
The next assay addresses ROS1 (Homo sapiens, UniProt P08922). The experiment in a line: HTRF KinEASE-TK kinase inhibitory assay, ROS1. Format: biochemical. The conditions noted are these: for inhibition at 1 µM: read-out: ROS1 Inhibition (1μM); for ROS1 Inhibition (1μM): kinase inhibition % at 1 μM.
[3] abbreviates: MTT, 72 h, mean of at least three independent experiments.
Setting [4] is: average of two independent experiments.
Setting [5] is: read-out: ROS1 IC50, average of two independent experiments.

Sequence of c-MET (P08581 25-1390): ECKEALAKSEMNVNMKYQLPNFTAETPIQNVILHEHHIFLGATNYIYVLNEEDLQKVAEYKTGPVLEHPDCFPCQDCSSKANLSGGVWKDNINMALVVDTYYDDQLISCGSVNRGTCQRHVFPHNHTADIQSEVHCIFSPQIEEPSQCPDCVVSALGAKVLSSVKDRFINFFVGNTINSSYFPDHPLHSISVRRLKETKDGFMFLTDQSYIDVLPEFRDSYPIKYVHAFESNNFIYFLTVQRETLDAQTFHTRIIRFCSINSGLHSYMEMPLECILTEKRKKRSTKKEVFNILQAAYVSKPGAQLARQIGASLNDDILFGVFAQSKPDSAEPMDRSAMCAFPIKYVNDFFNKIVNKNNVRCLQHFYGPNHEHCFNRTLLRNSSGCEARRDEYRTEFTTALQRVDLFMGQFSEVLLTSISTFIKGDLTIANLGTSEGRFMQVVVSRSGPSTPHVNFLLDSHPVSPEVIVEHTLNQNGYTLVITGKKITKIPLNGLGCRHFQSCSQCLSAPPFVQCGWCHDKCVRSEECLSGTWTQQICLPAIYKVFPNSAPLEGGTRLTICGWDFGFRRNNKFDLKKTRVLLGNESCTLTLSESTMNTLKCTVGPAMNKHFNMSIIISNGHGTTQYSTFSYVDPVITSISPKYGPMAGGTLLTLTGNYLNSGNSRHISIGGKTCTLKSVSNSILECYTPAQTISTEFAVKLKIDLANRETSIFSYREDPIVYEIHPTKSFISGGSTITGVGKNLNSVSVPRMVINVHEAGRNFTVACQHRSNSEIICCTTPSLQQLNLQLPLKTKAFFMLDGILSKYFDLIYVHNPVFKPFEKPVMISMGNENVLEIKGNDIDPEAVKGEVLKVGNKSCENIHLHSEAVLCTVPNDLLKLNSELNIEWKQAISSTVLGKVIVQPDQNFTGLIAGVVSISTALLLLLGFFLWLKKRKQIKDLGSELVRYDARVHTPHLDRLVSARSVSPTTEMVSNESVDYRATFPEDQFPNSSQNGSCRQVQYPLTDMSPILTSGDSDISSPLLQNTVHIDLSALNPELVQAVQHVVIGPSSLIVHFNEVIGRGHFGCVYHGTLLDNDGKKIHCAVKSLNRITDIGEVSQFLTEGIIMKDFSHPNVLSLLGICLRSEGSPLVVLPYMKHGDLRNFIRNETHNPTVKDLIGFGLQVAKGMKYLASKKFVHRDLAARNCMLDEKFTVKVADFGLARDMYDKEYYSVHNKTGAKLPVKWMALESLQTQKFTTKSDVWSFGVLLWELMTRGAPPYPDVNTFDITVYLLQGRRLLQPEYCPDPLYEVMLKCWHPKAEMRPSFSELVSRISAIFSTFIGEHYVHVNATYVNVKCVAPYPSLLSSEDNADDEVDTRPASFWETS
Sequence of ALK^WT (Q9UM73 19-1620): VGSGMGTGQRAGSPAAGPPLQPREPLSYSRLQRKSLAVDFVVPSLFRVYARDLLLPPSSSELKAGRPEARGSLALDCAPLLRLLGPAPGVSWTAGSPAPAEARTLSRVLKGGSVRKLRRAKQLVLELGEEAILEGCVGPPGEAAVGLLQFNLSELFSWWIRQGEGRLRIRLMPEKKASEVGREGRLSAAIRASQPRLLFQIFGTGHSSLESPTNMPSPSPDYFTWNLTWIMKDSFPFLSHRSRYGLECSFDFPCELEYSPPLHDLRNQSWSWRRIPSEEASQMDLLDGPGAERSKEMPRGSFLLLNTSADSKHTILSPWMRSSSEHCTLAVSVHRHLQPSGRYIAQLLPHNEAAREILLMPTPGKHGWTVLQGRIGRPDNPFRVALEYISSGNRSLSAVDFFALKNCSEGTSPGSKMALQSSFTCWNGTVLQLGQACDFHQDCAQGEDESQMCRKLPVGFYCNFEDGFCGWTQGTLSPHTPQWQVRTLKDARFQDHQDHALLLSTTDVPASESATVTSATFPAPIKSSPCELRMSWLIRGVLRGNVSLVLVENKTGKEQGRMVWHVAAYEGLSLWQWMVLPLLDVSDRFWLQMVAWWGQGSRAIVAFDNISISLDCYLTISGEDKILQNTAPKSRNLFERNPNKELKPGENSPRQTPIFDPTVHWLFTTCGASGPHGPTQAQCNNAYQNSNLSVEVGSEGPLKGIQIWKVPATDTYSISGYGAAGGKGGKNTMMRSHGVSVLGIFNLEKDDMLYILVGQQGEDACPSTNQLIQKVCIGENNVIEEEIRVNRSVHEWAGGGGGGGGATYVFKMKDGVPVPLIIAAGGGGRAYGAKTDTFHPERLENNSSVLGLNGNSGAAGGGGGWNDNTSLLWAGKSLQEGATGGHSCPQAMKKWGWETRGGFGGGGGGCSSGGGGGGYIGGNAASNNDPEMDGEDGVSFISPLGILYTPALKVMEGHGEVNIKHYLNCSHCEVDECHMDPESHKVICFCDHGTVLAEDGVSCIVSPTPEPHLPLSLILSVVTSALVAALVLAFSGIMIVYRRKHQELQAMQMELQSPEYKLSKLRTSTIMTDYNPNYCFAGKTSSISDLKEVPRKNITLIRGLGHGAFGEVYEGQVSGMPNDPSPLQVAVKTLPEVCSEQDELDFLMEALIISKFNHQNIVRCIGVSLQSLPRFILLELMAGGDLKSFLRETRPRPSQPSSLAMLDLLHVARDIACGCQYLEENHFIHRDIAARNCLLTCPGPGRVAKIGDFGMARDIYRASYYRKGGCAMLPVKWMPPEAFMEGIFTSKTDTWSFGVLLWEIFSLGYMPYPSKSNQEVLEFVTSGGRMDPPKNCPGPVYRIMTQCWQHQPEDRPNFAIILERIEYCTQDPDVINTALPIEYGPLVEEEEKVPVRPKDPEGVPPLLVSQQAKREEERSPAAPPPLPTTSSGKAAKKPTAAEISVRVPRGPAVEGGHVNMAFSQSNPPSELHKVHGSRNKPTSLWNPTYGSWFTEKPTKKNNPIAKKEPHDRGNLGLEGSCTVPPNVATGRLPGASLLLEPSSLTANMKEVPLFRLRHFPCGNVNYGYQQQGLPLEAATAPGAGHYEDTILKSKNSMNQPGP

Usually inhibition stands for the drop in the measured response relative to a control, in per cent. A word on the IC50: it is the concentration needed to halve the response being measured. Turning to `CCCn1cc(-c2cnc(N)c(O[C@H](C)c3ccccc3-c3ccnn3C)c2)cn1` [B05, (R)-3–(1-(2–(1-methyl-1H-pyrazol-5-yl)phenyl)ethoxy)-5–(1-propyl-1H-pyrazol-4-yl)pyridin-2-amine], the inhibition at 1 µM was found to be 26% on c-MET, 42% on ALK^WT and 90% on ROS1. For the same compound, the IC50 in assay [1] (Homo sapiens, NCI-H3122, 72 h) was found to be 96.2 ± 6.9 µM; against ALK^WT, 1.16 µM; in assay [2] (Homo sapiens, HCC78, 72 h), 21.3 ± 0.7 µM; at ROS1 it was 0.26 µM.
In the case of `CCn1cc(-c2cnc(N)c(O[C@H](C)c3ccccc3-c3ccnn3C)c2)cn1` [B04, (R)-5–(1-ethyl-1H-pyrazol-4-yl)-3–(1-(2–(1-methyl-1H-pyrazol-5-yl)phenyl)ethoxy)pyridin-2-amine], the inhibition at 1 µM at c-MET was determined as 28%; on ALK^WT it was 59%. Moreover, the IC50 in assay [1] (Homo sapiens, NCI-H3122, 72 h) was 128 ± 25.5 µM; in assay [2] (Homo sapiens, HCC78, 72 h), 28 ± 4.5 µM; on ROS1 it was 0.0805 µM.
Regarding `CCCn1cc(-c2cnc(N)c(O[C@H](C)c3ccccc3)c2)cn1` [A04, (R)-3–(1-phenylethoxy)-5–(1-propyl-1H-pyrazol-4-yl)pyridin-2-amine], the figures for the inhibition at 1 µM on c-MET, at ALK^WT and on ROS1 were 5%, 37% and 64%, respectively. The IC50 was 1.54 µM against ALK^WT and 0.964 µM against ROS1. Also, the “fold decrease in ROS1 potency compared to A02” value on ROS1 (963.9 nM vs. 99.5 nM) is recorded as approximately 10 fold.
For the compound `C[C@@H](Oc1cc(-c2cccn2C)cnc1N)c1ccccc1-c1ccnn1C` [B01, (R)-3–(1-(2–(1-methyl-1H-pyrazol-5-yl)phenyl)ethoxy)-5–(1-methyl-1H-pyrrol-2-yl)pyridin-2-amine], the inhibition at 1 µM was determined as 0% at c-MET, 30% on ALK^WT and 81% at ROS1. The IC50 in assay [1] (Homo sapiens, NCI-H3122, 72 h) amounted to 186 ± 8.6 µM; in assay [2] (Homo sapiens, HCC78, 72 h), 33.9 ± 1.8 µM; against ROS1 it was 0.103 µM.
In the case of `C[C@@H](Oc1cc(-c2ccnn2C)cnc1N)c1ccccc1-c1ccnn1C` [B02, (R)-5–(1-methyl-1H-pyrazol-5-yl)-3–(1-(2–(1-methyl-1H-pyrazol-5-yl)phenyl)ethoxy)pyridin-2-amine], the figures for the inhibition at 1 µM on c-MET, at ALK^WT and on ROS1 were 6%, 30% and 86%, respectively. Also, the IC50 in assay [1] (Homo sapiens, NCI-H3122, 72 h) was found to be 689 ± 57.2 µM; in assay [2] (Homo sapiens, HCC78, 72 h), 64.8 ± 4.5 µM; on ROS1 it was 0.216 µM.
For `CCn1cc(-c2cnc(N)c(O[C@H](C)c3ccccc3F)c2)cn1` [A07, (R)-5–(1-ethyl-1H-pyrazol-4-yl)-3–(1-(2-fluorophenyl)ethoxy)pyridin-2-amine], the inhibition at 1 µM on c-MET was 18%; on ALK^WT it was 69%; at ROS1, 87%. On ROS1, this compound returned an IC50 of 0.0814 µM.
On to “(R)-5–(6-amino-5–(1-(4'-methyl-[1,1'-biphenyl]-2-yl)ethoxy)pyridin-3-yl)-1'-methylspiro[indoline-3,4'-piperidin]-2-one [C04]”, for which the “c-MET Inhibition (1μM)” value at c-MET is reported as 43%. Further, the IC50 was found to be 2.4 ± 0.3 µM in assay [1] (setting [3]), 0.0388 µM at ALK^WT (read-out: ALK IC50) and 0.0165 µM at ROS1 (setting [5]). Besides, on ALK^WT, the “ALK Inhibition (1μM)” value amounted to 100%. Moreover, the “ROS1 Inhibition (1μM)” value at ROS1 (setting [4]) is on record as 100%.
For the compound `CCCn1cc(-c2cnc(N)c(O[C@H](C)c3ccccc3F)c2)cn1` [A08, (R)-3–(1-(2-fluorophenyl)ethoxy)-5–(1-propyl-1H-pyrazol-4-yl)pyridin-2-amine], the inhibition at 1 µM worked out at 22% on c-MET, 58% on ALK^WT and 91% on ROS1. Besides, the IC50 in assay [1] (Homo sapiens, NCI-H3122, 72 h) came out at 36.8 ± 2.5 µM; in assay [2] (Homo sapiens, HCC78, 72 h), 13.9 ± 6.3 µM; on ROS1, 0.12 µM.
`CCn1cc(-c2cnc(N)c(O[C@H](C)c3ccccc3)c2)cn1` [A03, (R)-5–(1-ethyl-1H-pyrazol-4-yl)-3–(1-phenylethoxy)pyridin-2-amine]: the results for the inhibition at 1 µM at c-MET, on ALK^WT and at ROS1 were 14%, 65% and 85%, respectively. Besides, the IC50 in assay [1] (Homo sapiens, NCI-H3122, 72 h) stood at 101 ± 22.8 µM; on ALK^WT, 0.454 µM; in assay [2] (Homo sapiens, HCC78, 72 h), 50.5 ± 14 µM; on ROS1, 0.317 µM.
“(R)-5–(6-amino-5–(1-(4'-fluoro-[1,1'-biphenyl]-2-yl)ethoxy)pyridin-3-yl)-1'-methylspiro[indoline-3,4'-piperidin]-2-one [C06]”: the “c-MET Inhibition (1μM)” value on c-MET (1 µM) is recorded as 58%. Also, the IC50 in assay [1] (setting [3]) turned out to be 1.4 ± 0.1 µM; at ALK^WT (read-out: ALK IC50), 0.214 µM; in assay [2] (setting [3]), 3.1 ± 0.3 µM; on ROS1 (setting [5]), 0.0312 µM. The “ALK Inhibition (1μM)” value on ALK^WT (1 µM) was 91%. In addition, the “ROS1 Inhibition (1μM)” value on ROS1 (average of two independent experiments, 1 µM) is 98%.
On to `C[C@@H](Oc1cc(-c2cccn2C)cnc1N)c1ccccc1-c1ccccc1` [B06, (R)-3–(1-([1,1'-biphenyl]-2-yl)ethoxy)-5–(1-methyl-1H-pyrrol-2-yl)pyridin-2-amine], for which the inhibition at 1 µM on c-MET is 9%; at ALK^WT, 44%; on ROS1, 90%. The IC50 was 24.8 ± 5 µM in assay [1] (Homo sapiens, NCI-H3122, 72 h); 7.1 ± 0.7 µM in assay [2] (Homo sapiens, HCC78, 72 h); 0.192 µM at ROS1.
For `C[C@@H](Oc1cc(-c2ccnn2C)cnc1N)c1ccccc1` [A01, (R)-5–(1-methyl-1H-pyrazol-5-yl)-3–(1-phenylethoxy)pyridin-2-amine], the inhibition at 1 µM at c-MET was found to be 5%; at ALK^WT, 90%; on ROS1, 101%. For the same compound, the IC50 was 152 ± 44.4 µM in assay [1] (Homo sapiens, NCI-H3122, 72 h); 0.407 µM against ALK^WT; 28.7 ± 5.8 µM in assay [2] (Homo sapiens, HCC78, 72 h); 0.173 µM on ROS1.
In the case of `C[C@@H](Oc1cc(-c2cccn2C)cnc1N)c1ccccc1F` [A05, (R)-3–(1-(2-fluorophenyl)ethoxy)-5–(1-methyl-1H-pyrrol-2-yl)pyridin-2-amine], the inhibition at 1 µM on c-MET was -10%; at ALK^WT it was 18%; on ROS1, 43%. The IC50 came to 168 ± 39.4 µM in assay [1] (Homo sapiens, NCI-H3122, 72 h) and 278 ± 53.1 µM in assay [2] (Homo sapiens, HCC78, 72 h).
As for `CCn1cc(-c2cnc(N)c(O[C@H](C)c3ccccc3-c3ccccc3)c2)cn1` [B09, (R)-3–(1-([1,1'-biphenyl]-2-yl)ethoxy)-5–(1-ethyl-1H-pyrazol-4-yl)pyridin-2-amine], the inhibition at 1 µM turned out to be 50% on c-MET, 92% at ALK^WT and 99% at ROS1. For the same compound, the half-maximal inhibitory concentration (IC50) in assay [1] (Homo sapiens, NCI-H3122, 72 h) was found to be 8.5 ± 1.2 µM; on ALK^WT it was 0.0759 µM; in assay [2] (Homo sapiens, HCC78, 72 h), 11.4 ± 0.5 µM.
As for `CCCn1cc(-c2cnc(N)c(O[C@H](C)c3ccccc3-c3ccccc3)c2)cn1` [B10, (R)-3–(1-([1,1'-biphenyl]-2-yl)ethoxy)-5–(1-propyl-1H-pyrazol-4-yl)pyridin-2-amine], the figures for the inhibition at 1 µM at c-MET, on ALK^WT and at ROS1 were 60%, 82% and 98%, respectively. In addition, the IC50 in assay [1] (Homo sapiens, NCI-H3122, 72 h) was 13.9 ± 1.2 µM; in assay [2] (Homo sapiens, HCC78, 72 h), 7.7 ± 1.2 µM; against ROS1, 0.148 µM.
For the compound “(R)-5–(6-amino-5–(1-(4'-(trifluoromethoxy)-[1,1'-biphenyl]-2-yl)ethoxy)pyridin-3-yl)-1'-methylspiro[indoline-3,4'-piperidin]-2-one [C07]”, on c-MET, the “c-MET Inhibition (1μM)” value worked out at 18%. Besides, the IC50 in assay [1] (setting [3]) was determined as 2.4 ± 0.1 µM; on ALK^WT (read-out: ALK IC50), 0.414 µM; in assay [2] (setting [3]) it was 4.2 ± 0.2 µM; on ROS1 (setting [5]), 0.0736 µM. Besides, the “ALK Inhibition (1μM)” value on ALK^WT is listed as 55%. The “ROS1 Inhibition (1μM)” value at ROS1 (setting [4]) amounted to 95%.
For `C[C@@H](Oc1cc(-c2cnn(C)c2)cnc1N)c1ccccc1` [A02, (R)-5–(1-methyl-1H-pyrazol-4-yl)-3–(1-phenylethoxy)pyridin-2-amine], the inhibition at 1 µM stood at 2% on c-MET, 65% at ALK^WT and 101% on ROS1. In addition, the IC50 in assay [1] (Homo sapiens, NCI-H3122, 72 h) was found to be 149 ± 18.5 µM; on ALK^WT it was 0.458 µM; in assay [2] (Homo sapiens, HCC78, 72 h), 36.4 ± 3.7 µM; against ROS1, 0.0995 µM.
`C[C@@H](Oc1cc(-c2ccnn2C)cnc1N)c1ccccc1-c1ccccc1` [B07, (R)-3–(1-([1,1'-biphenyl]-2-yl)ethoxy)-5–(1-methyl-1H-pyrazol-5-yl)pyridin-2-amine]: the inhibition at 1 µM on c-MET stood at 8%; at ALK^WT, 99%; at ROS1, 99%. For the same compound, the IC50 in assay [1] (Homo sapiens, NCI-H3122, 72 h) came out at 14.3 ± 3.6 µM; at ALK^WT, 0.217 µM; in assay [2] (Homo sapiens, HCC78, 72 h), 16.9 ± 1.4 µM; against ROS1, 0.0657 µM.
Regarding `C[C@@H](Oc1cc(-c2cnn(C)c2)cnc1N)c1ccccc1-c1ccnn1C` [B03, (R)-5–(1-methyl-1H-pyrazol-4-yl)-3–(1-(2–(1-methyl-1H-pyrazol-5-yl)phenyl)ethoxy)pyridin-2-amine], the inhibition at 1 µM on c-MET amounted to 21%; on ALK^WT, 88%; on ROS1, 74%. The IC50 in assay [1] (Homo sapiens, NCI-H3122, 72 h) came to 207 ± 40.7 µM; against ALK^WT it was 0.286 µM; in assay [2] (Homo sapiens, HCC78, 72 h) it was 52.7 ± 15.2 µM; against ROS1, 0.374 µM.
For “(R)-5–(6-amino-5–(1-(3'-methyl-[1,1'-biphenyl]-2-yl)ethoxy)pyridin-3-yl)-1'-methylspiro[indoline-3,4'-piperidin]-2-one [C05]”, the “c-MET Inhibition (1μM)” value on c-MET is recorded as 59%. The IC50 was determined as 2.4 ± 0.1 µM in assay [1] (setting [3]), 0.0797 µM on ALK^WT (read-out: ALK IC50), 4.6 ± 0.1 µM in assay [2] (setting [3]) and 0.0773 µM on ROS1 (setting [5]). For the same compound, the “ALK Inhibition (1μM)” value on ALK^WT was 101%. Moreover, the “ROS1 Inhibition (1μM)” value at ROS1 (setting [4]) is given as 100%.
